For one data set, the target named is T1, HsCDK5/p25 (Homo sapiens, UniProt Q00535).
T1 construct: made in house
Put plainly: protein kinase assay, [γ-33P] ATP. It is filed as biochemical. As to the method: (§1) Then, we evaluated the intermediates salts 6a–f and fourteen final compounds 9a–n on four protein kinases: HsCDK5-p25 (cyclin-dependant kinase 5-p25), SsGSK-3α/β (glycogen synthase kinase-3α/β) SsCK1δ/ε (Caseine kinase 1) and HsHaspin as an essential mitotic kinase. All assays were run in the presence of 15 μM of ATP and appropriate substrates. IC50 values were determined from dose-response curves. Concerning the library of the fourteen (5Z) 3-(4-arylmethylamino)butyl-5-arylidene-2-thioxo-1,3-thiazolidine-4-ones 9a–n and also the six diamines salts 6a–f, the results are given in Table 3. […] It is interesting to note that these two compounds are respectively substituted with an hydroxyl function on para-position of the 5-arylidene moiety and also with a similar bulky group (1,3-benzodioxol-5-yl for 9j and 2,3-dihydro-benzo[1,4]dioxin-6-yl for 9n) on the arylmethylamino moiety grafted on the N-3 butyl chain.
(§2) Kinase activities for each enzyme were assayed in buffer A (25 mM Tris-HCl pH 7.5, 10 mM MgCl2, 1 mM EGTA, 1 mM DTT, 50 µg/mL Heparin, BSA 0.15 mg/mL) or B (60 mM β-glycerophosphate, 30 mM p-Nitrophenylphosphate, 25 mM MOPS, 5 mM EGTA, 15 mM MgCl2, 1 mM DTT, 0.1 mM Na vanadate), with their corresponding substrates, in the presence of 15 µM [γ-^33P] ATP (3000 Ci/mmol; 10 mCi/mL) in a final volume of 30 µL. After 30 min incubation at 30 °C, the reaction was stopped by harvesting, using a FilterMate harvester (Packard, Meriden, CT, USA), onto P81 phosphocellulose papers (GE Healthcare, Velizy-Villacoublay, France) which were washed in 1% phosphoric acid. Scintillation fluid was added and the radioactivity measured in a Packard counter. Blank values were subtracted and activities calculated as pmoles of phosphate incorporated during the 30 min incubation. The activities were expressed in a percentage of the maximal activity, i.e., in the absence of inhibitors. Controls were performed with appropriate dilutions of DMSO. CK1 and Haspin peptide substrates were obtained from Proteogenix (Oberhausbergen, France).
CDK5/p25 (human, recombinant) was prepared as previously described. […]

The target in the next data set is SsCK1δ/ε. The data set is described as follows: protein kinase assay, [γ-33P] ATP. The class given is biochemical, porcine. The note with it: 15 μM ATP; CKS peptide substrate; >10 = inhibitory but IC50 > 10 μM. As to the method: as §1, §2
Casein kinase 1 (CK1δ/ε) (porcine brain, native) was assayed with 0.67 µg of CKS peptide ([…]pSAYSITA).

For the next data set, the system named is MDA-MB231 cells. The data set is described as follows: in vitro inhibition of cell proliferation / survival assay. It is filed as cell-based. The note with it: Homo sapiens; for IC50: MDA-MB-231, 48 h, average of three assays, standard error ± 0.5 μM; for viability at 25 µM: MDA-MB-231, measured at 25 μM after 48 h, single dose, triplicate. As to the method: (§3) As an initial effort to investigate their in vitro bioactivity, the new synthesized 3-(4-arylmethylamino)butyl-2-thioxo-1,3-thiazolidine-4-one 9a–n and also their precursors 6a–f were evaluated for their in vitro inhibition of cell proliferation. For this study, we used a panel of seven representative tumoral cell lines, namely HuH7 D12 (differential hepato cellular carcinoma), Caco 2 (differentiating colorectal adenocarcinoma), MDA-MBD231 ([…]), HCT 116 (actively proliferating colorectal adenocarcinoma), PC3 (prostate carcinoma), NCI-H727 (lung carcinoma), HaCat keratinocyte and, diploid skin fibroblasts as normal cell lines for control.
(§4) Skin diploid fibroblastic cells were provided by BIOPREDIC International Company (Rennes, France). Caco2 (Ref ECACC: 86010202), Huh-7D12 (Ref ECACC: 01042712), MDA-MB-231 (Ref ECACC: 92020424), HCT-116 (Ref ECACC: 91091005), PC3 (Ref ECACC: 90112714), NCI-H727 (Ref ECACC: 94060303) cell lines were obtained from the ECACC collection and HaCaT (from Cell Lines Service, Eppelheim, Germany). Cells were grown according to ECACC recommendations. The toxicity test of the compounds on these cells was as follows: 2 × 10^3 cells for HCT-116 cells or 4 × 10^3 for the other cells were seeded in 96 multiwell plates in triplicate and left for 24 h for attachment, spreading and growing. Then, cells were exposed for 48 h to increasing concentrations of the compounds, ranging from 0.1 to 25 μM in a final volume of 120 μL of culture medium. Cells were fixed in cooled solution of 90% ethanol/5% acetic acid, nuclei were stained with Hoechst 3342 (Sigma) and counted using automated imaging analysis (Cellomics Arrayscan VTI/HCS Reader, Thermo/Scientific, Waltham, MA, USA). The IC50 were graphically determined.

Data set [1] concerns NCI-H727 cells (lung carcinoma). Described as above. It is filed as cell-based. To be noted: Homo sapiens, NCI-H727; for IC50: 48 h, average of three assays, standard error ± 0.5 μM; for viability at 25 µM: measured at 25 μM after 48 h, single dose, triplicate, read-out: % of Survival. The protocol:
as §3, §4

For data set [2], the system named is Caco 2 cells (differentiating colorectal adenocarcinoma). The data set is described as above. It is filed as cell-based. To be noted: Homo sapiens; for IC50: 48 h, average of three assays, standard error ± 0.5 μM; for viability at 25 µM: measured at 25 μM after 48 h, single dose, triplicate. As to the method: as §3, §4
In data set [3] the test system is Huh7 D12 cells (differential hepato cellular carcinoma). Described as above. The class given is cell-based. The note with it: for IC50: Huh-7D12, 48 h, average of three assays, standard error ± 0.5 μM; for viability at 25 µM: Huh-7D12, measured at 25 μM after 48 h, single dose, triplicate. The protocol:
as §3, §4

Another data set concerns HaCat keratinocyte. Described as above. It is filed as cell-based. To be noted: for IC50: 48 h, average of three assays, standard error ± 0.5 μM; for viability at 25 µM: measured at 25 μM after 48 h, single dose, triplicate. The protocol: as §3, §4
The test system of data set [4] is PC3 cells (prostate carcinoma). The data set is described as above. It is filed as cell-based. The note with it: Homo sapiens; for IC50: PC-3, 48 h, average of three assays, standard error ± 0.5 μM; for viability at 25 µM: PC-3, measured at 25 μM after 48 h, single dose, triplicate. The protocol: as §3, §4
In data set [5] the test system is HCT 116 cells (actively proliferating colorectal adenocarcinoma). The data set is described as above. It is filed as cell-based. To be noted: Homo sapiens; for IC50: 48 h, average of three assays, standard error ± 0.5 μM; for viability at 25 µM: measured at 25 μM after 48 h, single dose, triplicate. The protocol: as §3, §4
In another data set the target is SsGSK-3α/β. The data set is described as follows: protein kinase assay, [γ-33P] ATP. The note with it: 15 μM ATP; GS-1 substrate; >10 = inhibitory but IC50 > 10 μM. The class given is biochemical, porcine. As to the method: as §1, §2
GSK-3α/β (porcine brain, native) was assayed, as described for CDK5/p25 but in Buffer A and using a GSK-3 specific substrate (GS-1: […]pEDEEE) (pS stands for phosphorylated serine). GS-1 was synthesized by Millegen (Labege, France).

In another data set the test system is diploid skin fibroblasts. Put plainly: in vitro inhibition of cell proliferation / survival assay, normal cells control. The note with it: Skin fibroblast, Fibroblasts; for IC50: 48 h, average of three assays, standard error ± 0.5 μM; for viability at 25 µM: measured at 25 μM after 48 h, single dose, triplicate, read-out: % of Survival. The class given is cell-based. The protocol: as §3, §4

The text below walks through data of publication PMC6332318, “Synthetic Development of New 3-(4-Arylmethylamino)butyl-5-arylidene-rhodanines under Microwave Irradiation and Their Effects on Tumor Cell Lines and against Protein Kinases” (Molecules, 2015).

T1 sequence (Q00535 whole entry): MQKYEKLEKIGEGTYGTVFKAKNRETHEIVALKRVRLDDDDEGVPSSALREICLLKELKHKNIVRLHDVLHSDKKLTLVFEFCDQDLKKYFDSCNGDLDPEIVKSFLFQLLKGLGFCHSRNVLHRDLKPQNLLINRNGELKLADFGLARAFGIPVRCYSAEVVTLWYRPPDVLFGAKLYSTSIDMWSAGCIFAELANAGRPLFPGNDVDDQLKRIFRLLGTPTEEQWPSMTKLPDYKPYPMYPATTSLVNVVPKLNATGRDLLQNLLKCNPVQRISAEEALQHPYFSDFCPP
T1 sequence (Q15078 99-307 partner limits assumed): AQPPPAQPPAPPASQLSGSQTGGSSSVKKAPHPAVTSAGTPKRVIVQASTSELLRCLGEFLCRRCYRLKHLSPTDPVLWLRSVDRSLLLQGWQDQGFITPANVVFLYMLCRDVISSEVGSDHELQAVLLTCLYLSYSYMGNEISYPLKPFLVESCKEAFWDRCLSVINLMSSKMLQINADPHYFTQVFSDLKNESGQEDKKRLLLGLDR

The term IC50 denotes the concentration that gives 50% inhibition. Higher therefore signals lower potency. By melting point is commonly meant the temperature, or range, at which the solid turns liquid. Take `O=C1/C(=C/c2ccc3c(c2)OCO3)SC(=S)N1CCCCNCc1ccc2c(c1)OCO2` [Compound 9h, (5Z)3-[4-(1,3-Benzodioxol-5-ylmethylamino)butyl]-5-(1,3-benzodioxol-5-ylmethylene)-2-thioxo-1,3-thiazolidin-4-one]: the melting point fell in the range of 245 to 256 °C. On HsCDK5/p25, this compound gave an IC50 of 1100 nM. Moreover, on SsCK1δ/ε, 6.6 µM corresponded to half-maximal inhibition (IC50). In the data set on MDA-MB231 cells, this compound displayed an IC50 of 10 µM and a viability at 25 µM of 49%. In [1], the IC50 is greater than 25 µM and the viability at 25 µM came to 43%. In data set [2], this compound showed an IC50 of 14 µM and a viability at 25 µM of 42%. In data set [3], this compound came in with an IC50 of 10 µM and a viability at 25 µM of 7%. The IC50 with HaCat keratinocyte (Homo sapiens, HaCaT) was 10 µM. Further, the viability at 25 µM in the data set on HaCat keratinocyte (Homo sapiens) was 10%. Also, in data set [4], half-maximal inhibition (IC50) was put at 13 µM and the viability at 25 µM is 51%. In data set [5], it took 13 µM to reach half-maximal inhibition (IC50) and the viability at 25 µM was found to be 65%. The compound also had an IC50 against SsGSK-3α/β greater than 10 µM. In the data set on diploid skin fibroblasts, the IC50 was greater than 25 µM and the viability at 25 µM was 80%.

As for `COc1cc(/C=C2\SC(=S)N(CCCCNCc3ccc4c(c3)OCCO4)C2=O)ccc1O` [Compound 9n, (5Z)3-[4-(2,3-Dihydro-benzo[1,4]dioxin-6-ylmethylamino)butyl]-5-(4-hydroxy-3-methoxybenzylidene)-2-thioxo-1,3-thiazolidin-4-one], the melting point was 202 to 204 °C. Besides, at SsCK1δ/ε, it took 2 µM to reach half-maximal inhibition (IC50). In addition, in the data set on MDA-MB231 cells, the midpoint of inhibition, the IC50, lay at 15 µM and the viability at 25 µM worked out at 55%. Moreover, in data set [1], the concentration for half-maximal inhibition (IC50) was found to be 17 µM and the viability at 25 µM turned out to be 63%. In data set [2], this compound returned an IC50 of 16 µM and a viability at 25 µM of 28%. In data set [3], the IC50 is 15 µM and the viability at 25 µM was 41%. For the same compound, the IC50 in the data set with HaCat keratinocyte (Homo sapiens, HaCaT) was determined as 15 µM. This compound gave a viability at 25 µM with HaCat keratinocyte (Homo sapiens) of 48%. Further, in data set [4], inhibition was half-maximal at 19 µM (IC50) and the viability at 25 µM came out at 61%. In data set [5], half-maximal inhibition (IC50) required 21 µM and the viability at 25 µM amounted to 52%. At SsGSK-3α/β, this compound had an IC50 greater than 10 µM. Further, in the data set on diploid skin fibroblasts, the IC50 is greater than 25 µM and the viability at 25 µM was determined as 86%.

Turning to `O=C1/C(=C/c2ccc(O)cc2)SC(=S)N1CCCCNCc1ccc2c(c1)OCO2` [Compound 9j, (5Z)3-[4-(1,3-Benzodioxol-5-ylmethylamino)butyl]-5-(4-hydroxy-benzylidene)-2-thioxo-1,3-thiazolidin-4-one], the IC50 against HsCDK5/p25 is greater than 10000 nM; on SsCK1δ/ε, 1.4 µM; with MDA-MB231 cells, 19 µM; in data set [1] it was 19 µM; in data set [2] it was 27 µM; in [3] it was 11 µM. In addition, the IC50 with HaCat keratinocyte (Homo sapiens, HaCaT) was 13 µM; in data set [4], 19 µM; in data set [5], 22 µM; against SsGSK-3α/β, greater than 10 µM; with diploid skin fibroblasts, greater than 25 µM. The viability at 25 µM in the data set with MDA-MB231 cells was 42%; in [1], 33%; in data set [2], 41%; in data set [3], 22%; in the data set on HaCat keratinocyte (Homo sapiens) it was 21%; in [4] it was 38%. The figures for the viability at 25 µM (in data set [5]; in the data set on diploid skin fibroblasts) were 40% and 77%, respectively.

Consider `O=C1/C(=C/c2ccc3c(c2)OCCO3)SC(=S)N1CCCCNCc1ccc2c(c1)OCO2` [Compound 9i, (5Z)3-[4-(1,3-Benzodioxol-5-ylmethylamino)butyl]-5-(2,3-dihydro-1,4-benzodioxin-6-ylmethylene)-2-thioxo-1,3-thiazolidin-4-one], for which the melting point fell in the range of 253 to 257 °C. At HsCDK5/p25, this compound came in with an IC50 of 1300 nM. The same compound showed an IC50 on SsCK1δ/ε of 5.4 µM. In the data set on MDA-MB231 cells, this compound showed an IC50 of 9 µM and a viability at 25 µM of 17%. For the same compound, in [1], the IC50 was 11 µM and the viability at 25 µM stood at 9%. Further, in data set [2], inhibition was half-maximal at 13 µM (IC50) and the viability at 25 µM amounted to 17%. Besides, in data set [3], the IC50 was 9 µM and the viability at 25 µM is 5%. Further, in the data set with HaCat keratinocyte, the IC50 amounted to 8 µM. Further, in the data set on HaCat keratinocyte (Homo sapiens, HaCaT), the IC50 is less than 10 µM. The viability at 25 µM with HaCat keratinocyte (Homo sapiens) was 6%. Also, in data set [4], inhibition was half-maximal at 14 µM (IC50) and the viability at 25 µM worked out at 39%. In data set [5], this compound gave an IC50 of 14 µM and a viability at 25 µM of 8%. The concentration for half-maximal inhibition (IC50) on SsGSK-3α/β is greater than 10 µM. In the data set on diploid skin fibroblasts, the IC50 is greater than 25 µM and the viability at 25 µM worked out at 54%.
